Experimental data: PMC5011342, “A high throughput drug screening assay to identify compounds that promote oligodendrocyte differentiation using acutely dissociated and purified oligodendrocyte precursor cells” (BMC Research Notes, 2016)
Where two headings read alike, the source gives them in different places.

Columns and labels:
expanded OPCs = assay: cells; settings: for viability at 0.1 µM / viability at 1 µM / viability at 10 µM: Rattus norvegicus, 72 h
Outline: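 Toxicity screen: compounds added at 0.1, 1 and 10 µM to PDGF-AA-expanded OPCs in 96-well plates, 3-day incubation at 37 °C, 10% CO2, then alamarBlue 1:10 for 4 h with fluorescence readout. Results set screening doses of 10/2, 2/0.4 or 0.4/0.08 µM.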

[1] = test system: acutely dissociated and purified rat OPCs; assay: Acute OL differentiation assay (MBP expression/cell, immunofluorescent image quantification); assay type: cell-based
Outline: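 This acute differentiation assay used purified rat OPCs from postnatal day 6–7 pups, seeded into PDL/laminin-coated 96-well plates in differentiation medium lacking PDGF and FGF. Compounds were applied in quadruplicate after a 1–2 h preincubation at 37 °C, 10 % CO2, with 0.1 % DMSO negative and 40 ng/ml T3 positive controls in eight wells. After fixation on DIV4, anti-MBP immunofluorescence images yielded MBP expression/cell.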

[2] = read-out: 0.1 µM (% DMSO), alamarBlue viability, NCC library compound at 0.1 µM, sheet "All Tox data"
[3] = read-out: 1 µM (% DMSO), alamarBlue viability, NCC library compound at 1 µM, sheet "All Tox data"
[4] = read-out: 10 µM (% DMSO), alamarBlue viability, NCC library compound at 10 µM, sheet "All Tox data"
[5] = Rattus norvegicus, test compound at 2 uM, NCC library screen, sheet "All OLga data", relative to quetiapine, read-out: 2 uM (% Quet)
[6] = Rattus norvegicus, test compound at 10 uM, NCC library screen, sheet "All OLga data", relative to quetiapine, read-out: 10 uM (% Quet)
[7] = alamarBlue viability of expanded OPCs, compound at 0.1 µM, relative to DMSO control
[8] = alamarBlue viability of expanded OPCs, compound at 1 µM, relative to DMSO control
[9] = alamarBlue viability of expanded OPCs, compound at 10 µM, relative to DMSO control
[10] = read-out: 0.1 µM (% DMSO), alamarBlue viability of expanded OPCs, compound at 0.1 µM, sheet All Tox data
[11] = read-out: 1 µM (% DMSO), alamarBlue viability of expanded OPCs, compound at 1 µM, sheet All Tox data
[12] = read-out: 10 µM (% DMSO), alamarBlue viability of expanded OPCs, compound at 10 µM, sheet All Tox data
[13] = Rattus norvegicus, 2 uM test compound, relative to quetiapine, sheet "All OLga data", read-out: OL differentiation, 2 uM (% Quet)
[14] = Rattus norvegicus, 10 uM test compound, relative to quetiapine, sheet "All OLga data", read-out: OL differentiation, 10 uM (% Quet)
[15] = Rattus norvegicus, test compound at 2 uM, MBP expression relative to quetiapine, NCC library screen, sheet "All OLga data", read-out: 2 uM (% Quet)
[16] = Rattus norvegicus, test compound at 10 uM, MBP expression relative to quetiapine, NCC library screen, sheet "All OLga data", read-out: 10 uM (% Quet)
[17] = Rattus norvegicus, 0.4 uM test compound, relative to quetiapine, sheet "All OLga data", read-out: OL differentiation, 0.4 uM (% Quet)

Compound | viability at 0.1 µM (expanded OPCs; [2]) [%] | viability at 1 µM (expanded OPCs; [3]) [%] | viability at 10 µM (expanded OPCs; [4]) [%] | activation at 2 µM [1, 5] [%] | activation at 10 µM [1, 6] [%] | viability at 0.1 µM (expanded OPCs; [10]) [%] | viability at 1 µM (expanded OPCs; [11]) [%] | viability at 10 µM (expanded OPCs; [12]) [%] | activation at 2 µM [1, 13] [%] | also measured
Cc1cccc(C)c1NC(=O)C1CCCCN1C (centres unmarked) [Mepivacaine] | 89.5 | 89.9 | 79.7 | -6.4 | -0.9 |  |  |  |  | 
CC(C)NCC(O)COc1cccc2[nH]ccc12 (centres unmarked) [Pindolol] |  |  |  | -2.9 | -35.6 |  |  |  |  | 0.1 µM (% DMSO) (expanded OPCs; [7]): 88.9 % DMSO; 1 µM (% DMSO) (expanded OPCs; [8]): 89.4 % DMSO; 10 µM (% DMSO) (expanded OPCs; [9]): 86.5 % DMSO
CCc1nc(N)nc(N)c1-c1ccc(Cl)cc1 [Pyrimethamine] | 100 | 99.6 | 66.5 | -12.3 | -35.3 |  |  |  |  | 
O=C(O)/C=C/c1ccc(Cn2ccnc2)cc1 [Ozagrel] |  |  |  |  |  | 82.8 | 85.9 | 92.2 | -6.1 | activation at 10 µM [1, 14]: -20.6%
CC(=O)OCC(=O)[C@@]1(O)CC[C@H]2[C@@H]3CCC4=CC(=O)CC[C@]4(C)[C@H]3C(=O)C[C@@]21C [Cortisone acetate] |  |  |  |  |  |  |  |  |  | 0.1 µM (% DMSO) (expanded OPCs; [7]): 89.9 % DMSO; 1 µM (% DMSO) (expanded OPCs; [8]): 98.1 % DMSO; 10 µM (% DMSO) (expanded OPCs; [9]): 86.2 % DMSO; activation at 2 µM [1, 15]: 8.6%; activation at 10 µM [1, 16]: 4.1%
O=P1(N(CCCl)CCCl)NCCCO1 (centres unmarked) [Cyclophosphamide] |  |  |  |  |  |  |  |  |  | 0.1 µM (% DMSO) (expanded OPCs; rat): 90.6 % DMSO; 1 µM (% DMSO) (expanded OPCs; rat): 100.6 % DMSO; 10 µM (% DMSO) (expanded OPCs; rat): 97.0 % DMSO; activation at 2 µM ([1]; Rattus norvegicus, read-out: 2 uM (% Quet)): 16.5%; activation at 10 µM ([1]; Rattus norvegicus, read-out: 10 uM (% Quet)): 5.1%
NC(Cc1cc(I)c(Oc2cc(I)c(O)c(I)c2)c(I)c1)C(=O)O (centres unmarked) [thyroxine, reference compound] |  |  |  | -26.7 | -186 |  |  |  |  | 0.1 µM (% DMSO) (expanded OPCs; [7]): 212.0 % DMSO; 1 µM (% DMSO) (expanded OPCs; [8]): 190.0 % DMSO; 10 µM (% DMSO) (expanded OPCs; [9]): 120.0 % DMSO; promotion of OL differentiation (in words) ([1]; MBP expression versus 0.1 % DMSO negative control): able to promote OL differentiation at one or both concentrations tested
NCC(=O)CCC(=O)O [Aminolevulinic Acid] | 96 | 86.7 | 73.4 | 5.1 | -16.1 |  |  |  |  | 
COc1ccc2[nH]c([S+]([O-])Cc3ncc(C)c(OC)c3C)nc2c1 (centres unmarked) [Omeprazole] | 84.3 | 88.4 | 85.8 | -5.2 | 5.2 |  |  |  |  | 
COc1ccnc(C[S+]([O-])c2nc3ccc(OC(F)F)cc3[nH]2)c1OC (centres unmarked) [Pantoprazole] |  |  |  |  |  | 94.1 | 91.1 | 95.2 | 8.8 | activation at 10 µM [1, 14]: -5.3%
CNCCCN1c2ccccc2CCc2ccccc21 [Desipramine] |  |  |  |  |  |  |  |  |  | 0.1 µM (% DMSO) (expanded OPCs; [7]): 75.5 % DMSO; 1 µM (% DMSO) (expanded OPCs; [8]): 43.8 % DMSO; 10 µM (% DMSO) (expanded OPCs; [9]): 16.4 % DMSO; activation at 0.08 µM ([1]; Rattus norvegicus, test compound at 0.08 uM, MBP expression relative to quetiapine, NCC library screen, sheet "All OLga data", read-out: 0.08 uM (% Quet)): 8.9%; activation at 0.4 µM ([1]; Rattus norvegicus, test compound at 0.4 uM, MBP expression relative to quetiapine, NCC library screen, sheet "All OLga data", read-out: 0.4 uM (% Quet)): -5.3%
NC[C@H]1CC[C@H](C(=O)Oc2ccc(CCC(=O)O)cc2)CC1 [Cetraxate] |  |  |  |  |  | 103 | 92.1 | 104 | -6.2 | activation at 10 µM [1, 14]: -5.4%
COc1cc(C(=O)NC2CCCNC2)cc(OC)c1OC (centres unmarked) [Troxipide] |  |  |  |  |  | 102 | 115 | 109 | 18 | activation at 10 µM [1, 14]: -6.8%
CC1(C)S[C@@H]2[C@H](NC(=O)COc3ccccc3)C(=O)N2[C@H]1C(=O)O [Penicillin V] |  |  |  |  |  |  |  |  |  | 0.1 µM (% DMSO) (expanded OPCs; [7]): 96.1 % DMSO; 1 µM (% DMSO) (expanded OPCs; [8]): 96.3 % DMSO; 10 µM (% DMSO) (expanded OPCs; [9]): 93.4 % DMSO; activation at 2 µM [1, 15]: 14.6%; activation at 10 µM [1, 16]: 6.4%
O=C1[C@H]2CCCC[C@H]2C(=O)N1CCCCN1CCN(c2nsc3ccccc23)CC1 [Perospirone, reference compound] |  |  |  |  |  | 110 | 164 | 132 | 84.5 | activation at 10 µM [1, 14]: 18.7%; EC50 ([1]; Rattus norvegicus, average EC50 for induction of OL differentiation from independent biological replicates, eight concentrations): 0.1 µM; hit in OL differentiation assay, MRF-TMC ([1]; ● = confirmed hit in this paper's assay): ●
NC(=NCc1ccc(Cl)cc1)SCCCc1cnc[nH]1 [Clobenpropit] | 120 | 107 | 39.3 | -2.7 |  |  |  |  |  | activation at 0.4 µM ([1]; Rattus norvegicus, test compound at 0.4 uM, NCC library screen, sheet "All OLga data", relative to quetiapine, read-out: 0.4 uM (% Quet)): 7.2%
CCCCCCNC(=O)n1cc(F)c(=O)[nH]c1=O [Carmofur] |  |  |  |  |  | 90.5 | 76.1 | 14.6 | -84.8 | activation at 0.4 µM [1, 17]: -28.7%
C=CC[C@@H]1/C=C(\C)C[C@H](C)C[C@H](OC)[C@H]2O[C@@](O)(C(=O)C(=O)N3CCCC[C@H]3C(=O)O[C@H](/C(C)=C/[C@@H]3CC[C@@H](O)[C@H](OC)C3)[C@H](C)[C@@H](O)CC1=O)[C@H](C)C[C@@H]2OC [Tacrolimus] |  |  |  |  |  | 94.6 | 102 | 109 | -39.9 | activation at 10 µM [1, 14]: -53.9%
CCOc1ccc2ccccc2c1C(=O)N[C@@H]1C(=O)N2[C@@H]1SC(C)(C)[C@@H]2C(=O)O [Nafcillin] |  |  |  | -20.5 | 0.11 |  |  |  |  | 0.1 µM (% DMSO) (expanded OPCs; [7]): 104.4 % DMSO; 1 µM (% DMSO) (expanded OPCs; [8]): 94.8 % DMSO; 10 µM (% DMSO) (expanded OPCs; [9]): 90.0 % DMSO
CN(C)CCc1c[nH]c2ccc(C[C@H]3COC(=O)N3)cc12 [Zolmitriptan] | 85.9 | 89.9 | 95.5 | 4.1 | 4.7 |  |  |  |  | 
CC(C)(O)c1ccccc1CC[C@@H](SCC1(CC(=O)O)CC1)c1cccc(/C=C/c2ccc3ccc(Cl)cc3n2)c1 [Montelukast] | 95.5 | 83 | 11 |  |  |  |  |  | -31.7 | activation at 0.4 µM [1, 17]: 12.9%
CN1CCN2c3ncccc3Cc3ccccc3C2C1 (centres unmarked) [Remergil] |  |  |  |  |  |  |  |  |  | 0.1 µM (% DMSO) (expanded OPCs): 90.1 % DMSO; 1 µM (% DMSO) (expanded OPCs): 82.0 % DMSO; 10 µM (% DMSO) (expanded OPCs): 62.7 % DMSO; 2 uM (% Quet) ([1]; test compound at 2 uM, MBP expression relative to quetiapine, NCC library screen, sheet "All OLga data"): -49.3 % Quet; 10 uM (% Quet) ([1]; test compound at 10 uM, MBP expression relative to quetiapine, NCC library screen, sheet "All OLga data"): -63.5 % Quet
